Where two headings read alike, the source gives them in different places.
How the values were obtained:
[1] = test system: HCV genotype 1b (Con1) replicon; assay: Anti-HCV luciferase reporter assay on Huh-luc/neo-ET replicon cells; settings: Hepatitis C virus, GETYPE1B, 72 h
[2] = Cytotoxicity by methylene blue assay; type: cell-based; settings: human, Huh-luc/neo-ET cells
Description: The cytotoxicity of different herbal extract or components was measured by methylene blue assay. Huh-luc/neo-ET cells were seeded at a density of 7 × 10^3 cells per well in 96-well plate and treated with serial dilution of different herb extracts for 72 h. Cells were fixed and stained with 0.5% methylene blue in 50% ethanol, and then washed with tap water. After air-dry, cells were solubilized with 1% Sarkosyl and cell viability was determined from the extent absorption by spectrophotometric measurements at 595 nm (Spectra Max M5, Molecular Devices).

[3] = test system: different subtypes of human and avian influenza viruses; settings: cited from earlier work
HCV entry = test system: HCV entry; set-up: method as in PMID 22491814; settings: cited from earlier work
[4] = test system: HCV JFH1-GFP chimeric virus; set-up: method as in PMID 22491814; settings: read-out: EC50, replication of HCV JFH1-GFP chimeric virus; cited from earlier work
J399EM virus = test system: J399EM virus; set-up: method as in PMID 22491814; settings: cited from earlier work
[5] = read-out: Anti-HCV Activity (EC50, 72 h)
[6] = read-out: Anti-HCV Activity (EC50)
[7] = read-out: Anti-HCV Activity (EC50), in brackets as mass concentration

Compound	EC50 [1, 5] [µM]	IC50 at 72 h [2] [µM]	EC50 [1, 6] [µM]	EC50 [1, 7] [ng/mL]	also measured
Oc1cc(O)c2c(c1)O[C@H](c1ccc(O)c(O)c1)[C@@H](O)C2 [(+)-Catechin]	> 100	> 100			
COc1cc(C[C@H]2CO[C@H](c3ccc(O[C@@H]4O[C@H](CO)[C@@H](O)[C@H](O)[C@H]4O)c(OC)c3)[C@H]2CO)ccc1O[C@@H]1O[C@H](CO)[C@@H](O)[C@H](O)[C@H]1O [Clemastanin B]					inhibitory concentrations against influenza viruses [3]: below 1 mg/mL
COC(=O)N[C@H](C(=O)N1CCC[C@H]1c1nc(-c2ccc(-c3ccc(-c4c[nH]c([C@@H]5CCCN5C(=O)[C@@H](NC(=O)OC)C(C)C)n4)cc3)cc2)c[nH]1)C(C)C [Daclatasvir, daclatasvir]			8e-06 ± 1e-06	0.00591	
Oc1cc(O)c2c(c1)O[C@H](c1ccc(O)c(O)c1)[C@H](O)C2 [EC, epicatechin]	> 100	> 100			
O=C(O[C@@H]1Cc2c(O)cc(O)cc2O[C@@H]1c1ccc(O)c(O)c1)c1cc(O)c(O)c(O)c1 [ECG, epicatechin gallate]	69.8 ± 5.62	> 100			
Oc1cc(O)c2c(c1)O[C@H](c1cc(O)c(O)c(O)c1)[C@H](O)C2 [EGC, epigallocatechin]	> 100	> 100			
O=C(O[C@@H]1Cc2c(O)cc(O)cc2O[C@@H]1c1cc(O)c(O)c(O)c1)c1cc(O)c(O)c(O)c1 [EGCG, epigallocatechin gallate]	68.7 ± 4.51	> 100			EC50 (HCV entry): 25 µM; EC50 [4]: 17.9 µM; EC50 (J399EM virus): 80 µM
O=C(O)c1cc(O)c(O)c(O)c1 [Gallic acid, gallic acid]	> 100	> 100			
COc1ccc2c(O[C@@H]3C[C@H]4C(=O)N[C@]5(C(=O)NS(=O)(=O)C6CC6)C[C@H]5/C=C\CCCCN(C)C(=O)[C@@H]4C3)cc(-c3nc(C(C)C)cs3)nc2c1C [Simeprevir, simeprevir]			0.00127 ± 0.00025	42.5	
CC(C)OC(=O)[C@H](C)N[P@](=O)(OC[C@H]1O[C@@H](n2ccc(=O)[nH]c2=O)[C@](C)(F)[C@@H]1O)Oc1ccccc1 [Sofosbuvir, sofosbuvir]			0.0263 ± 0.0055	13.9	
CCC[C@H](NC(=O)[C@@H]1[C@H]2CCC[C@H]2CN1C(=O)[C@@H](NC(=O)[C@@H](NC(=O)c1cnccn1)C1CCCCC1)C(C)(C)C)C(=O)C(=O)NC1CC1 [Telaprevir, telaprevir]			0.185 ± 0.035	126	

Reference: article PMC6274077, “In Vitro Study on Anti-Hepatitis C Virus Activity of Spatholobus suberectus Dunn” (Molecules, 2016)
